The subject of this experiment is Realskin reconstructed epidermis (filaggrin, marker for epidermal differentiation). The experiment in a line: Epidermal differentiation (filaggrin immunolabelling) in Realskin reconstructed epidermis model. Format: cell-based. The settings on record: incubated from D 20, analysed from D 27. As for the experimental part:
The effects of the combination are evaluated with respect to epidermal differentiation and proliferation in the […] reconstructed epidermis model. […] The epidermises are analysed histologically and by filaggrin (marker for epidermal differentiation) immunolabelling starting from D 27. Filaggrin, which is a late differentiation marker, is a product of degradation of profilaggrin, a high MW phosphoprotein contained in the keratohyalin granules. At the moment the keratinocyte transforms into a corneocyte, the keratohyalin granules disaggregate, and the profillagrin undergoes sequential proteolysis which releases oligomers and then monomers of filaggrin. The results arc illustrated in FIG. 1.

As for `Nc1ncnc2c1ncn2[C@@H]1O[C@H](CO)[C@@H](O)[C@H]1O` [adenosine], where the note is “Adenosine at 10 μM”, the “differentiation (filaggrin immunolabelling)” value was “+11%”. As to `CC1=C(/C=C/C(C)=C/C=C/C(C)=C/CO)C(C)(C)CCC1` [retinol], the “delay in differentiation (filaggrin immunolabelling)” value (Retinol at 250 μM) is −36%.

Values taken from patent US20100178260A1, “COMPOSITION COMPRISING A RETINOID, AN ADENOSINE-BASED NONPHOSPHATED COMPOUND, AND A SEMICRYSTALLINE POLYMER” (L'OREAL, priority 2009, published 2010).
